# From patent US5418235A, “Aminoalkyl-substituted 5-mercaptothiazoles, the preparation and use thereof” (BASF Aktiengesellschaft, priority 1991, dated 1995)
# Structures can show the parent of a compound that is named as a salt. Where two headings read alike, the source gives them in different places.
# Target: dopamine D2 receptor (Rattus norvegicus, UniProt P61169)
# Assay: Receptor binding assay, 3H-ADTN displacement on rat striatal membranes (affinity for the dopamine D2 receptor)
# Set-up: species or system rat (Sprague Dawley)
# [1] = rat striatal membranes, 1 nM 3H-ADTN, 0.1 μM SCH 23390, 40 min at 25° C., non-specific binding with 50 nM spiperone, read-out: Ki, affinity of the test substances for the dopamine D2 receptor
# Protocol: Striata from rats (Sprague Dawley, Charles River) were homogenized immediately after removal in 0.32M sucrose solution (0° C.). The homogenate was filtered through gauze, the filtrate was centrifuged at 1000 ×g (5 min at 4° C.) and the resulting supernatant was centrifuged at 40000 ×g (4° C., 10 min). The residue (membranes) was taken up in incubation buffer (50 mM tris-HCl, 1 mM MgCl2 and 0.1% ascorbic acid, pH 7.4) and incubated at 37° C. for 20 min. The residue was subsequently washed 2× with incubation buffer by resuspension and recentrifugation. The membranes were frozen in portions in liquid nitrogen.
# The assay mixtures (1 ml) were composed of membranes (380 μg of protein), 1 nM ^3 H-ADTN (NEN, Dreieich Germany, specific radioactivity 1.4 TBq/mmol) and 0.1 μM SCH 23390 (total binding) or a) with the addition of 50 nM spiperone (non-specific binding) or b) with test substance. The mixtures were prepared in triplicate.
# After the incubation (40 min at 25° C.) the mixtures were filtered through glass fiber filters (Whatman GF/B) and briefly washed with ice-cold washing buffer (tris-HCl, pH 7.4). The radioactivity retained on the filters was determined by liquid scintillation counting. The non-specific binding comprised about 40-50% of the total binding.
# The evaluation of the competition plots and the determination of the dissociation constant took place by iterative non-linear regression analysis based on the "ligand" program (Muson and Rodbard: Anal. Biochem. 107 (1980) 220).
# Sequence of dopamine D2 receptor (P61169 whole entry): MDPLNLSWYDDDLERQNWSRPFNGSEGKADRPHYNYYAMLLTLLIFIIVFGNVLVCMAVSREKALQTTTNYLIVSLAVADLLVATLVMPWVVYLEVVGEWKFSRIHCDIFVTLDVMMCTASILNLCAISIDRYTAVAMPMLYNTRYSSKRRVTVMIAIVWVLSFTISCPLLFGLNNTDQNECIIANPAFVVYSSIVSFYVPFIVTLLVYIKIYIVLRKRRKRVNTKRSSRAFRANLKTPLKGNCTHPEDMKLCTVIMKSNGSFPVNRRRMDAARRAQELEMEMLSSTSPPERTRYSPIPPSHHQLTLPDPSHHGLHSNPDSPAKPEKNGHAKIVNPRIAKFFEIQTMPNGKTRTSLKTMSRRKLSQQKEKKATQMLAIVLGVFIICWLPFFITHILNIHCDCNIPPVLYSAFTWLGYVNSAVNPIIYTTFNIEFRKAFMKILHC
Compound,Ki [1],Ki
"CCCN(CCSc1sc(N)nc1C)CCc1ccccc1 [Example 5, 2-Amino-4-methyl-5-[2-(N-phenethyl-N-propylamino)-ethylthio]thiazole hydrochloride]",18 nM,–
"Cc1nc(N)sc1SCCN1CC=C(c2ccccc2)CC1 [Example 2, 2-Amino-5-[2-(1,2,3,6-tetrahydro-4-phenylpyridinyl)-ethylthio]-4-methylthiazole hydrochloride]",–,3 nM
"Cc1nc(N)sc1SCCN1CCN(c2ccccc2)CC1 [Example 3, 2-Amino-4-methyl-5-[2-(4-phenylpiperazinyl)ethylthio]thiazole hydrochloride]",19 nM,–

# The next lines start with results.
Ki [1],Compound,Ki
12 nM,"Cc1nc(N)sc1SCCN1CCC(c2ccccc2)CC1 [Example 1, 2-Amino-4-methyl-5-[2-(4-phenylpiperidinyl)ethyl-thio]thiazole hydrochloride]",–
9 nM,"CCCN(CCCSc1sc(N)nc1C)CCc1ccccc1 [Example 7, 2-Amino-4-methyl-5-[3-(N-phenethyl-N-propylamino)propylthio]thiazole tartrate]",–
